Test results published in patent publication US20240277706A1, “METHODS AND COMPOSTITIONS FOR TARGETING PD-L1” (Aligos Therapeutics, Inc., priority 2023, published 2024).
pEC50, pIC50: −log10 of the molar value.

Columns and labels:
PD-1/PD-L1 = PD-1/PD-L1 (Homo sapiens, UniProt Q9NZQ7); assay: PDL1/PD1 Binding Assay; conditions: PDL1-6×His 0.3 nM, PD1-Fc-Avi-Biotin 2.5 nM, acceptor/donor beads, Envision reader; read-out: PD-1/PD-L1 PPI IC50
Protocol: Compounds to be tested were serially diluted in DMSO, and further diluted in assay buffer (25 mM Hepes pH 7.4, 150 mM NaCl, 0.005% Tween 20, BSA 0.01%). Diluted compounds were added to the wells with final concentration of DMSO at 1%. PDL1-6×His protein was added to the wells, mixed well with compound. The plates were incubated for 30 min at room temperature. PD1-Fc-Avi-Biotin protein was added to the wells. Final concentration of PDL1 and PD1 protein is 0.3 nM and 2.5 nM, respectively. After a binding time of 30 min at room temperature, Anti-6×His Acceptor beads (final concentration 20 ug/ml) were added to the wells, and the incubation continued for 1 h. Streptavidin Donor beads (final concentration 20 ug/mL) were added at reduced light. The plates were sealed with foil and incubated in the dark for additional 1 h or overnight before reading on an Envision reader. The IC50 values were determined by fitting the curves using a four-parameter equation in Graphpad Prism 8.

PD-1/PD-L1 interaction = target: T1, PD-1/PD-L1 interaction (Homo sapiens, UniProt Q9NZQ7); assay: PD-1/PD-L1 NFAT Reporter Assay (Jurkat/CHO co-culture); type: cell-based; conditions: Jurkat cells overexpressing PD-1 with NFAT luciferase, co-culture with PD-L1 expressing CHO cells, 6 hrs at 37° C.
T1 construct: expressed in transfected cells; Jurkat cells (PD-1 and NFAT-luciferase)
T1 sequence (Q9NZQ7 19-290): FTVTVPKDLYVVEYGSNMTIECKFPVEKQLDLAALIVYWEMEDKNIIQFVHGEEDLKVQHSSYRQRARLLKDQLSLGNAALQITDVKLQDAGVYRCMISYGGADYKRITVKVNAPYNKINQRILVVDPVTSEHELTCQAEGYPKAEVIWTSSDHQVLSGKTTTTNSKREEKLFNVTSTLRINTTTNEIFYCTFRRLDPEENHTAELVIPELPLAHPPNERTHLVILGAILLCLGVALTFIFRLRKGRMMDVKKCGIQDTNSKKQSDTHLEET
Protocol: Blocking the PD-1/PD-L1 interaction will release the inhibitory signal and results in TCR signaling and NFAT-mediated luciferase activity.
CHO cells expressing surface-bound anti-CD3 antibodies and PD-L1 were first seeded overnight and treated with the compounds. Jurkat cells overexpressing PD-1 and a luciferase construct under NFAT promoter were then immediately seeded on the monolayer of CHO cells. The co-culture was then incubated for 6 hrs at 37° C. Luciferase activity was assessed by adding the ONE-Glo reagent and measuring luminescence with a plate reader. EC50 values were determined from the fit of the dose-response curves.

Chain of PD-1/PD-L1 (Q9NZQ7 19-238 limits assumed): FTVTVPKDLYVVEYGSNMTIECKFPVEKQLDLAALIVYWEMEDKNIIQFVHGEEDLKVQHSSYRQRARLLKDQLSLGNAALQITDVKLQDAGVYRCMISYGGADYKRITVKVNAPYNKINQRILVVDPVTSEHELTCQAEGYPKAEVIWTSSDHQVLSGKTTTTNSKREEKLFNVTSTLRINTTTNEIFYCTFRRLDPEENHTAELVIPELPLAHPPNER

Compound | pIC50 (PD-1/PD-L1) | Jurkat NFAT EC50 (PD-1/PD-L1 interaction) | pEC50 (PD-1/PD-L1 interaction)
CCOC(=O)C1CCN(Cc2ccc(-c3cccc(-c4cccc(NC(=O)c5ccnn(C)c5=O)c4Cl)c3Cl)nc2OC)CC1 [Compound C-51] | ≥ 8.00 | n.r | 
COc1nc(-c2cccc(-c3cccc(NC(=O)c4ccnn(C)c4=O)c3C)c2Cl)ccc1CN1CCC(C(=O)O)CC1 [Compound C-103] | ≥ 8.00 |  | 7.00 to 8.00
COc1nc(-c2cccc(-c3cccc(NC(=O)c4ccnn(C)c4=O)c3Cl)c2Cl)ccc1CN1C[C@@H]2[C@H](C1)[C@H]2C(=O)O [Compound C-100] | ≥ 8.00 |  | 7.00 to 8.00
COc1nc(-c2cccc(-c3cccc(NC(=O)c4ccnn(C)c4=O)c3Cl)c2Cl)ccc1CN1CCC2(C(=O)O)CC2C1 (stereo not drawn) [Compound C-101] | ≥ 8.00 |  | 7.00 to 8.00
COc1nc(-c2cccc(-c3cccc(NC(=O)c4ccnn(C)c4=O)c3C)c2Cl)cnc1CN1CCC(C(=O)O)CC1 [Compound C-105] | ≥ 8.00 |  | 7.00 to 8.00
COc1nc(-c2cccc(-c3cccc(NC(=O)c4ccnn(C)c4=O)c3Cl)c2Cl)ccc1CN1CCC(OC)(C(=O)O)CC1 [Compound C-98] | ≥ 8.00 |  | 7.00 to 8.00
COc1nc(-c2cccc(-c3cccc(NC(=O)c4ccnn(C)c4=O)c3Cl)c2Cl)ccc1CN1CC2CC(C1)C2C(=O)O (stereo not drawn) [Compound C-102] | ≥ 8.00 |  | 7.00 to 8.00
COc1nc(-c2cccc(-c3cccc(NC(=O)c4ccnn(C)c4=O)c3Cl)c2Cl)ccc1CN1CCC(F)(C(=O)O)CC1 [Compound C-97] | ≥ 8.00 |  | 7.00 to 8.00
COc1nc(-c2cccc(-c3cccc(NC(=O)c4ccnn(C)c4=O)c3Cl)c2Cl)cnc1CN1CCC(C(=O)O)CC1 [Compound C-104] | ≥ 8.00 |  | 7.00 to 8.00
COc1nc(-c2cccc(-c3cccc(NC(=O)c4ccnn(C)c4=O)c3Cl)c2Cl)ccc1CN1CC(c2nnn[nH]2)C1 [Compound C-26] | ≥ 8.00 |  | 7.00 to 8.00
COc1nc(-c2cccc(-c3cccc(NC(=O)c4ccnn(C)c4=O)c3Cl)c2Cl)ccc1CN1CC2CCC(C1)C2C(=O)O (stereo not drawn) [Compound C-99] |  |  | 6.00 to 7.00
COc1nc(-c2cccc(-c3cccc(NC(=O)c4ccnn(C)c4=O)c3Cl)c2Cl)ccc1CN1CCC(O)(C(=O)O)CC1 [Compound C-106] |  |  | 7.00 to 8.00
COc1nc(-c2cccc(-c3cccc(NC(=O)c4ccnn(C)c4=O)c3Cl)c2Cl)ccc1CN1CCC(C(=O)O)CC1 [Compound C-43] | ≥ 8.00 |  | 7.00 to 8.00
COc1nc(-c2cccc(-c3cccc(NC(=O)c4ccnn(C)c4=O)c3Cl)c2Cl)ccc1CN1CCC(C)(C(=O)O)CC1 [Compound C-96] | ≥ 8.00 |  | 7.00 to 8.00
CCOC(=O)C1CCN(Cc2ncc(-c3cccc(-c4cccc(NC(=O)c5ccnn(C)c5=O)c4Cl)c3Cl)nc2OC)CC1 [Compound C-107] | ≥ 8.00 |  | 7.00 to 8.00
COc1nc(-c2cccc(-c3cccc(NC(=O)c4ccnn(C)c4=O)c3Cl)c2Cl)ccc1CN1CCC(c2nnn[nH]2)CC1 [Compound C-95] | ≥ 8.00 |  | 7.00 to 8.00
